In one data set the target is T1, NLRP3 (Homo sapiens, UniProt Q96P20).
T1 construct: THP-1 cells (10^5/well) were differentiated with PMA (80 nM, 48 hours) in a 96-well plate; endogenous in cells; host or cells: PMA-differentiated, LPS-primed THP-1 cells
The data set can be described thus: Inhibition of NLRP3 by IL-1β secretion level (ELISA). The data set is classed as cell-based. To be noted: PMA-differentiated THP-1, LPS (10 ng/mL) 4 hours, compound 1 hour, nigericin (10 μM) 1 hour. On the procedure: THP-1 cells (10^5/well) were differentiated with PMA (80 nM, 48 hours) in a 96-well plate (BD Biosciences). The differentiated macrophages were primed with LPS (10 ng/mL) for 4 hours. Thereafter, the cells were treated with each compound for 1 hour in a serum-free medium, followed by activation of NLRP3 by nigericin for an additional 1 hour. The supernatant was collected and the inhibition of human IL-1β secretion was analyzed using the Human IL-1β Uncoated ELISA Kit (Thermo Fisher Scientific, Inc.). A microplate spectrophotometer system (Molecular Devices) was employed to read absorbance in the plate.
A general note: An ELISA detects its analyte on a solid surface through an enzyme-linked reagent.

A further data set in a line: Microsomal stability. The data set is classed as in vitro ADME, human. The method, then:
Stock solutions of NIC7 and NIC7w were prepared at a concentration of 10 mM in DMSO, and were diluted to a concentration of 100 μM with 100% methanol as a working solution. These NIC7 and NIC7w solutions were diluted to a concentration of 1 μM with potassium phosphate buffer (pH 7.4), and then each solution was incubated with 0.5 mg/mL liver microsomes (human) at 37° C. for 5 minutes. The reaction was initiated by adding a NADPH-generating system (3.3 mM glucose-6-phosphate (G6P), 1.3 mM β-NADP^+, 3.3 mM MgCl2, and 0.4 U/mL glucose-6-phosphate dehydrogenase (G6PD)) at 37° C. The reaction was stopped at 0 and 30 minutes using cold acetonitrile containing carbamazepine as an internal standard at 20 ng/mL. After vortexing and centrifugation, the supernatant was analyzed with liquid chromatography with tandem mass spectrometry (LC-MS/MS). All microsomal assays were performed in duplicate.
After sample preparation, 0.1 mL acetonitrile containing 20 ng/mL internal standard was added to a 50 μL aliquot of each biological sample. After vortexing and centrifugation at 12,000 rpm for 10 minutes, 10 μL of the supernatant was analyzed with LC-MS/MS.
In the LC system, a reversed-phase C18 column (BEH C18, 2.1 mm×100 mm i.d., 1.7 μm; Waters, Ireland) was maintained at 4° C. The composition of the mobile phase was changed from 80% of 0.1% formic acid in water to 80% of 0.1% formic acid in acetonitrile for 3 minutes, and then switched to 80% of 0.1% formic acid in water for 3.1 minutes, and maintained at 0.5 at mL/min for 5 minutes. The analytes were monitored on an API5500 triple quadrupole mass spectrometer MS (AB Sciex, Foster City, CA) equipped with a turbo ion spray interface for electrospray ionization and operated in positive ion mode at 5.5 kV and 500° C. at 50 L/min of atomizing gas flow, 50 L/min of turbo ion-spray gas flow, 20 L/min of curtain gas flow, 5.5 kV of ring voltage and 5 Torr of collision gas (nitrogen) pressure. The mass transitions for NIC7, NIC7w and the internal standard were m/z 481.1→165.0 (collision energy, 45 eV), 453.1→165.0 (41.0 eV) and 236.9→194.0 (29 eV), respectively, in the multiple reaction monitoring mode.

The test system of data set [1] is AD model mice (Aβ1-42 injected). The data set can be described thus: Y-maze test in AD model (spatial working memory). The format is in vivo, C57BL/6 mice. To be noted: NIC7 100 nmol/g intraperitoneally, 3 days/week; vs vehicle-treated and untreated mice. The method, then:
(§1) 6-week-old male C57BL/6 mice (19 to 22 g) were used, and 5 mice per cage were bred in a feedlot. To create an AD model, experimental animals were administered isoflurane by inhalation, and then injected with Aβ1-42 (5 μL) using a Hamilton microsyringe with a 26-gauge needle. The AD model mice were trained for 20 minutes/mouse for 2 days before the experimental procedure, and then subjected to Y-maze tests and novel object recognition tests (for cognitive evaluation). Behavioral evaluation was performed 7 days after Aβ1-42 injection. The animals were subdivided into AD, NIC7-treated, vehicle (DMSO)-treated, donepezil-treated (positive control) and normal (no-disease) groups. Cognitive evaluation was performed on days 7, 14, 21 and 28 after injection.
The alteration in spatial cognitive behavior was assessed using a Y-maze apparatus with three horizontal identical arms (35 cm long×15 cm high×5 cm wide) symmetrically arranged at 120° to each other. The evaluation was performed in the Y-maze test 7 days after Aβ injection. After introduction into the Y-maze, each animal was allowed to move freely for 2 minutes and then measured for 5 minutes. The test subjects tended to enter an arm different from the arm they had previously visited. The number of arm entries and triads was recorded to calculate the percentage of alternation. […]

For data set [2] the test system is unchanged. The data set can be described thus: Novel object recognition test in AD model. The data set is classed as in vivo, C57BL/6 mice. The settings on record: NIC7 100 nmol/g intraperitoneally; vs vehicle-treated or untreated mice. On the procedure:
as §1
A novel object recognition test was performed in an open field box containing two identical objects. Animals were first familiarized with these identical objects for 2 minutes, and then one of the objects was replaced with a novel object, followed by reading for 5 minutes. The time spent with an identical object (tA) and the time spent with a novel object (tB) were calculated, and the recognition index ratio was calculated via the formula (tB/(tA+tB))×100.

The nature of a further data set: Body weight in AD model. To be noted: NIC7 100 nmol/g intraperitoneally; compared to the untreated mice. The format is in vivo, C57BL/6 mice. The method, then: as §1

Here are results for one molecule from patent US20240132458A1, “NLRP3 INFLAMMASOME SMALL-MOLECULE INHIBITOR FOR TREATMENT OF ALZHEIMER'S DISEASE” (AJOU UNIVERSITY INDUSTRY-ACADEMIC COOPERATION FOUNDATION, priority 2021, published 2024).

Molecules are shown by their SMILES. “Also recorded” adds a separate entry of the source.

T1 sequence (Q96P20 whole entry): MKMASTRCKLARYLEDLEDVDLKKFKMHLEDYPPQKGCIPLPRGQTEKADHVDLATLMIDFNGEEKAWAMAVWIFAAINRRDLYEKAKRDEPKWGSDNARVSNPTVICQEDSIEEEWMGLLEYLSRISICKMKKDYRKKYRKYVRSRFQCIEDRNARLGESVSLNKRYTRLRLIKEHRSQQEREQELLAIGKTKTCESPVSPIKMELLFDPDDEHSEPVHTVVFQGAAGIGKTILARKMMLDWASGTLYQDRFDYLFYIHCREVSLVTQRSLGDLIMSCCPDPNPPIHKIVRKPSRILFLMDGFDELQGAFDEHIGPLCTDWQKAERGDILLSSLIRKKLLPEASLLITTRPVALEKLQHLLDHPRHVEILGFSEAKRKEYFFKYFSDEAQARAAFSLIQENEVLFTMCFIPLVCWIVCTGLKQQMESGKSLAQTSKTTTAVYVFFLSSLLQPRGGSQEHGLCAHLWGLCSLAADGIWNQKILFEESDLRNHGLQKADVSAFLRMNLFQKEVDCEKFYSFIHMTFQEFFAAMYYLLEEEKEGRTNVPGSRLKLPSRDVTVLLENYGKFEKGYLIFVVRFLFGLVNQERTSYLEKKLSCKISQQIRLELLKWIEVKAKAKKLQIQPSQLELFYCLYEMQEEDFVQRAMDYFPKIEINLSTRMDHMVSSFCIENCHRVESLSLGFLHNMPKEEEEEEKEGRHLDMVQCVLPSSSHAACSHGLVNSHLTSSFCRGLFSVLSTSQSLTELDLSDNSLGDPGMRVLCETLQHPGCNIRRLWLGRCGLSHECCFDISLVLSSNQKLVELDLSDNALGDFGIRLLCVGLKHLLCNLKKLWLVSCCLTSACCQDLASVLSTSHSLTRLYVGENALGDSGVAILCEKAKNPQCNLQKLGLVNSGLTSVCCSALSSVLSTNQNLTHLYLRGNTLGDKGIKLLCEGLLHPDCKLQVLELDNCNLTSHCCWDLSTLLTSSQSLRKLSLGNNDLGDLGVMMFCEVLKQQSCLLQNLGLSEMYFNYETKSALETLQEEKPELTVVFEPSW

With `CC(=O)c1cccc(NC(=O)Nc2ccc3sc(NS(=O)(=O)c4ccc(C)cc4)nc3c2)c1` [NIC7, N-(5-(3-(3-acetylphenyl)ureido)benzo[d]thiazol-2-yl)-4-methylbenzenesulfonamide], the “inhibition of IL-1β secretion caused by NLRP3” value against NLRP3 is “highest potency; also recorded: significant inhibition”. The “metabolic stability versus positive control compound” value in “Microsomal stability” was “better half-life and stability than a positive control compound”. Besides, the “Microsomal stability (% at 30 min)” value in “Microsomal stability” (Human liver microsomes 0.5 mg/mL, 1 μM compound, 37° C.) is recorded as “Human: 19.7%”. Further, in data set [1], the “Y-maze test, spatial working memory” value is listed as “spent more time in the novel arm”. The “recognition index rate (novel object recognition test)” value in data set [2] is “better”. In the data set “Body weight in AD model”, the body weight entry is given as “significantly increased”.
